# Reference: US8410161B2, “Thioxanthone ring system derivatives” (National Defense Medical Center, priority 2010, dated 2013)
# What was measured:
# [1] = test system: HCC-2998; experiment: NCI in vitro DTP human cell line screen, HCC-2998; format: cell-based; settings: Colon Cancer, 1.00E−5 Molar
# Procedure: (§1) Then, a cell toxicity assay of the cancer lines made by National Cancer Institute will be discussed as follows. The cell toxicity assay is performed by choosing ten compounds (existing certification numbers) from the 59 compounds disclosed in the present invention first.
# [2] = test system: KM12; experiment: NCI in vitro DTP human cell line screen, KM12; format: cell-based; settings: Colon Cancer, 1.00E−5 Molar
# Procedure: as §1
# [3] = test system: SN12C; experiment: NCI in vitro DTP human cell line screen, SN12C; format: cell-based; settings: Renal Cancer, 1.00E−5 Molar
# Procedure: as §1
# [4] = test system: RPMI-8226; experiment: NCI in vitro DTP human cell line screen, RPMI-8226; format: cell-based; settings: Leukemia, 1.00E−5 Molar
# Procedure: as §1
# [5] = test system: IGROV1; experiment: NCI in vitro DTP human cell line screen, IGROV1; format: cell-based; settings: Ovarian Cancer, 1.00E−5 Molar
# Procedure: as §1
# [6] = test system: NCI-H522; experiment: NCI in vitro DTP human cell line screen, NCI-H522; format: cell-based; settings: Non-Small Cell Lung Cancer, 1.00E−5 Molar
# Procedure: as §1
# [7] = test system: SF-295; experiment: NCI in vitro DTP human cell line screen, SF-295; format: cell-based; settings: CNS Cancer, 1.00E−5 Molar
# Procedure: as §1
# [8] = MTT assay, HEL299 fibroblast; format: cell-based; settings: human
# From the text: Please refer to FIG. 4C, various cell viabilities of the HEL299 cell lines can be obtained through the MTT assay while the compounds No. 1˜30 are used to treat HEL299 cell lines, wherein HEL299 cell lines are fibroblast.
# [9] = test system: NCI-H322M; experiment: NCI in vitro DTP human cell line screen, NCI-H322M; format: cell-based; settings: Non-Small Cell Lung Cancer, 1.00E−5 Molar
# Procedure: as §1
# [10] = test system: A3 cell lines; experiment: MTT assay, A3 cell lines (lung cancer stem cell); format: cell-based
# From the text: Please to FIG. 4B, various cell viabilities of the A3 cell lines can be obtained through the MTT assay and illustrated in FIG. 4B while the compounds No. 1˜30 are used to treat A3 cell lines, wherein A3 cell lines are lung cancer stem cell.
# [11] = test system: OVCAR-5; experiment: NCI in vitro DTP human cell line screen, OVCAR-5; format: cell-based; settings: Ovarian Cancer, 1.00E−5 Molar
# Procedure: as §1
# [12] = test system: 60 cancer lines; experiment: NCI cell toxicity assay of 60 cancer lines, whole panel summary; format: cell-based, human; settings: mean over all cell lines; 1.00E−5 Molar
# Procedure: as §1
# [13] = test system: 786-0; experiment: NCI in vitro DTP human cell line screen, 786-0; format: cell-based; settings: Renal Cancer, 1.00E−5 Molar
# Procedure: as §1
# [14] = test system: PC-3; experiment: NCI in vitro DTP human cell line screen, PC-3; format: cell-based; settings: Prostate Cancer, 1.00E−5 Molar
# Procedure: as §1
# [15] = test system: BT-549; experiment: NCI in vitro DTP human cell line screen, BT-549; format: cell-based; settings: Breast Cancer, 1.00E−5 Molar
# Procedure: as §1
# [16] = test system: SK-MEL-5; experiment: NCI in vitro DTP human cell line screen, SK-MEL-5; format: cell-based; settings: Melanoma, 1.00E−5 Molar
# Procedure: as §1
# [17] = test system: MALME-3M; experiment: NCI in vitro DTP human cell line screen, MALME-3M; format: cell-based; settings: Melanoma, 1.00E−5 Molar
# Procedure: as §1
# [18] = test system: SNB-19; experiment: NCI in vitro DTP human cell line screen, SNB-19; format: cell-based; settings: CNS Cancer, 1.00E−5 Molar
# Procedure: as §1
# [19] = test system: NCI/ADR-RES; experiment: NCI in vitro DTP human cell line screen, NCI/ADR-RES; format: cell-based; settings: Ovarian Cancer, 1.00E−5 Molar
# Procedure: as §1
# [20] = test system: HCT-116; experiment: NCI in vitro DTP human cell line screen, HCT-116; format: cell-based; settings: Colon Cancer, 1.00E−5 Molar
# Procedure: as §1
# [21] = test system: OVCAR-3; experiment: NCI in vitro DTP human cell line screen, OVCAR-3; format: cell-based; settings: Ovarian Cancer, 1.00E−5 Molar
# Procedure: as §1
# [22] = test system: COLO 205; experiment: NCI in vitro DTP human cell line screen, COLO 205; format: cell-based; settings: Colon Cancer, 1.00E−5 Molar
# Procedure: as §1
# [23] = test system: TK-10; experiment: NCI in vitro DTP human cell line screen, TK-10; format: cell-based; settings: Renal Cancer, 1.00E−5 Molar
# Procedure: as §1
# [24] = test system: OVCAR-4; experiment: NCI in vitro DTP human cell line screen, OVCAR-4; format: cell-based; settings: Ovarian Cancer, 1.00E−5 Molar
# Procedure: as §1
# [25] = test system: SK-MEL-2; experiment: NCI in vitro DTP human cell line screen, SK-MEL-2; format: cell-based; settings: Melanoma, 1.00E−5 Molar
# Procedure: as §1
# [26] = test system: MDA-MB-468; experiment: NCI in vitro DTP human cell line screen, MDA-MB-468; format: cell-based; settings: Breast Cancer, 1.00E−5 Molar
# Procedure: as §1
# [27] = test system: MCF7; experiment: NCI in vitro DTP human cell line screen, MCF7; format: cell-based; settings: Breast Cancer, 1.00E−5 Molar
# Procedure: as §1
# [28] = test system: LOX IMVI; experiment: NCI in vitro DTP human cell line screen, LOX IMVI; format: cell-based; settings: Melanoma, 1.00E−5 Molar
# Procedure: as §1
# [29] = test system: UO-31; experiment: NCI in vitro DTP human cell line screen, UO-31; format: cell-based; settings: Renal Cancer, 1.00E−5 Molar
# Procedure: as §1
# [30] = test system: OVCAR-8; experiment: NCI in vitro DTP human cell line screen, OVCAR-8; format: cell-based; settings: Ovarian Cancer, 1.00E−5 Molar
# Procedure: as §1
# [31] = test system: CAKI-1; experiment: NCI in vitro DTP human cell line screen, CAKI-1; format: cell-based; settings: Renal Cancer, 1.00E−5 Molar
# Procedure: as §1
# [32] = test system: UACC-257; experiment: NCI in vitro DTP human cell line screen, UACC-257; format: cell-based; settings: Melanoma, 1.00E−5 Molar
# Procedure: as §1
# [33] = test system: U251; experiment: NCI in vitro DTP human cell line screen, U251; format: cell-based; settings: CNS Cancer, 1.00E−5 Molar
# Procedure: as §1
# [34] = test system: K562; experiment: NCI in vitro DTP human cell line screen, K562; format: cell-based; settings: Leukemia, 1.00E−5 Molar
# Procedure: as §1
# [35] = test system: NCI-H460; experiment: NCI in vitro DTP human cell line screen, NCI-H460; format: cell-based; settings: Non-Small Cell Lung Cancer, 1.00E−5 Molar
# Procedure: as §1
# [36] = test system: UACC-62; experiment: NCI in vitro DTP human cell line screen, UACC-62; format: cell-based; settings: Melanoma, 1.00E−5 Molar
# Procedure: as §1
# [37] = test system: SK-MEL-28; experiment: NCI in vitro DTP human cell line screen, SK-MEL-28; format: cell-based; settings: Melanoma, 1.00E−5 Molar
# Procedure: as §1
# [38] = test system: SW-620; experiment: NCI in vitro DTP human cell line screen, SW-620; format: cell-based; settings: Colon Cancer, 1.00E−5 Molar
# Procedure: as §1
# [39] = test system: HCT-15; experiment: NCI in vitro DTP human cell line screen, HCT-15; format: cell-based; settings: Colon Cancer, 1.00E−5 Molar
# Procedure: as §1
# [40] = test system: MOLT-4; experiment: NCI in vitro DTP human cell line screen, MOLT-4; format: cell-based; settings: Leukemia, 1.00E−5 Molar
# Procedure: as §1
# [41] = test system: SNB-75; experiment: NCI in vitro DTP human cell line screen, SNB-75; format: cell-based; settings: CNS Cancer, 1.00E−5 Molar
# Procedure: as §1
# [42] = test system: SK-OV-3; experiment: NCI in vitro DTP human cell line screen, SK-OV-3; format: cell-based; settings: Ovarian Cancer, 1.00E−5 Molar
# Procedure: as §1
# [43] = test system: SF-539; experiment: NCI in vitro DTP human cell line screen, SF-539; format: cell-based; settings: CNS Cancer, 1.00E−5 Molar
# Procedure: as §1
# [44] = test system: HT29; experiment: NCI in vitro DTP human cell line screen, HT29; format: cell-based; settings: Colon Cancer, 1.00E−5 Molar
# Procedure: as §1
# [45] = test system: DU145; experiment: NCI in vitro DTP human cell line screen, DU145; format: cell-based; settings: Prostate Cancer, 1.00E−5 Molar
# Procedure: as §1
# [46] = test system: HS 578-T; experiment: NCI in vitro DTP human cell line screen, HS 578-T; format: cell-based; settings: Breast Cancer, 1.00E−5 Molar
# Procedure: as §1
# [47] = test system: T-47D; experiment: NCI in vitro DTP human cell line screen, T-47D; format: cell-based; settings: Breast Cancer, 1.00E−5 Molar
# Procedure: as §1
# [48] = test system: HL-60(TB); experiment: NCI in vitro DTP human cell line screen, HL-60(TB); format: cell-based; settings: Leukemia, 1.00E−5 Molar
# Procedure: as §1
# [49] = test system: SF-268; experiment: NCI in vitro DTP human cell line screen, SF-268; format: cell-based; settings: CNS Cancer, 1.00E−5 Molar
# Procedure: as §1
# [50] = test system: NCI-H23; experiment: NCI in vitro DTP human cell line screen, NCI-H23; format: cell-based; settings: Non-Small Cell Lung Cancer, 1.00E−5 Molar
# Procedure: as §1
# [51] = test system: A control cell lines; experiment: MTT assay, A control cell lines (lung cancer cell); format: cell-based
# From the text: Please refer to Table 1 and FIGS. 4A-4C. According to a MTT assay (Table 1), various cell viabilities of the A control cell lines can be obtained and illustrated in FIG. 4A while the compounds No. 2˜30 are used to treat A control cell lines, wherein A control cell lines are lung cancer cell.
# [52] = test system: SR; experiment: NCI in vitro DTP human cell line screen, SR; format: cell-based; settings: Leukemia, 1.00E−5 Molar
# Procedure: as §1
# [53] = test system: MDA-MB-231/ATCC; experiment: NCI in vitro DTP human cell line screen, MDA-MB-231/ATCC; format: cell-based; settings: Breast Cancer, 1.00E−5 Molar
# Procedure: as §1
# [54] = test system: M14; experiment: NCI in vitro DTP human cell line screen, M14; format: cell-based; settings: Melanoma, 1.00E−5 Molar
# Procedure: as §1
# [55] = test system: NCI-H226; experiment: NCI in vitro DTP human cell line screen, NCI-H226; format: cell-based; settings: Non-Small Cell Lung Cancer, 1.00E−5 Molar
# Procedure: as §1
# [56] = test system: EKVX; experiment: NCI in vitro DTP human cell line screen, EKVX; format: cell-based; settings: Non-Small Cell Lung Cancer, 1.00E−5 Molar
# Procedure: as §1
# [57] = test system: RXF 393; experiment: NCI in vitro DTP human cell line screen, RXF 393; format: cell-based; settings: Renal Cancer, 1.00E−5 Molar
# Procedure: as §1
# [58] = test system: MDA-MB-435; experiment: NCI in vitro DTP human cell line screen, MDA-MB-435; format: cell-based; settings: Melanoma, 1.00E−5 Molar
# Procedure: as §1
# [59] = test system: ACHN; experiment: NCI in vitro DTP human cell line screen, ACHN; format: cell-based; settings: Renal Cancer, 1.00E−5 Molar
# Procedure: as §1
smiles,measurement,setting,value
"Cc1cc(C)cc(Sc2ccc3c(=O)c4ccccc4sc3c2Cl)c1 [No. 14, 4-Chloro-3-(3,5-dimethylphenylthio)-9H-thioxanthen-9-one]",Growth Percent,[1],101.80%
same,Growth Percent,[2],109.61%
same,Growth Percent,[3],101.79%
same,Growth Percent,[4],101.54%
same,Growth Percent,[5],100.06%
same,Growth Percent,[6],91.47%
same,Growth Percent,[7],116.45%
same,viability,[8],104 ± 9.21%
same,Growth Percent,[9],116.93%
same,cell viabilities of A3 cell lines (MTT assay),[10],113 ± 0.50%
same,Growth Percent,[11],98.39%
same,"Growth Percent, Mean",[12],101.73%
same,Growth Percent,[13],110.62%
same,Growth Percent,[14],97.92%
same,Growth Percent,[15],105.50%
same,Growth Percent,[16],104.23%
same,Growth Percent,[17],102.39%
same,Growth Percent,[18],108.53%
same,Growth Percent,[19],101.13%
same,Growth Percent,[20],93.28%
same,Growth Percent,[21],121.13%
same,Growth Percent,[22],108.10%
same,Growth Percent,[23],103.30%
same,Growth Percent,[24],101.64%
same,Growth Percent,[25],100.30%
same,Growth Percent,[26],110.63%
same,Growth Percent,[27],94.94%
same,Growth Percent,[28],96.06%
same,Growth Percent,[29],87.22%
same,Growth Percent,[30],97.95%
same,Growth Percent,[31],90.10%
same,Growth Percent,[32],89.26%
same,Growth Percent,[33],95.50%
same,Growth Percent,[34],100.94%
same,Growth Percent,[35],105.72%
same,Growth Percent,[36],96.19%
same,Growth Percent,[37],117.96%
same,Growth Percent,[38],104.39%
same,Growth Percent,[39],97.09%
same,Growth Percent,[40],99.59%
same,Growth Percent,[41],84.85%
same,Growth Percent,[42],103.14%
same,Growth Percent,[43],105.19%
same,Growth Percent,[44],95.28%
same,Growth Percent,[45],118.42%
same,Growth Percent,[46],103.67%
same,Growth Percent,[47],100.87%
same,Growth Percent,[48],99.82%
same,Growth Percent,[49],104.92%
same,Growth Percent,[50],92.54%
same,cell viabilities of A control cell lines (MTT assay),[51],112 ± 8.03%
same,Growth Percent,[52],86.99%
same,Growth Percent,[53],106.25%
same,Growth Percent,[54],107.60%
same,Growth Percent,[55],97.38%
same,Growth Percent,[56],96.66%
same,Growth Percent,[57],114.27%
same,Growth Percent,[58],99.38%
same,Growth Percent,[59],98.35%
